The record followed here is patent US10457707B2, “Substituted urea depsipeptide analogs as activators of the CLPP endopeptidase” (priority 2015, dated 2019).

*1 amine or outer side, *2 acyl side, *3 side chain or, on linkers, in order; H or OH if unused. Where a SMILES comes first, the peptide text is derived from it. Bridges are numbered along the chain shown (N, C = ends). [ ]: non-standard residue; d: D form. The star is where a group is joined. ξ: configuration not given here. Phe(3,5-F2) = N[C@@H](Cc1cc(F)cc(F)c1)C(=O)O; NMepT = CN[C@H](C(=O)O)[C@@H](C)OP(=O)(O)O; NH(4-OCF3-phenyl) = FC(F)(F)Oc1ccc(N*)cc1; Pro(4S-Me) = C[C@@H]1CN[C@H](C(=O)O)C1; Pro(4R-Me) = C[C@H]1CN[C@H](C(=O)O)C1; ξPro(4R-OH) = O=C(O)C1C[C@@H](O)CN1; ξPro(4R-Me) = C[C@H]1CNC(C(=O)O)C1; NH(4-Et-phenyl) = CCc1ccc(N*)cc1; NMeT = CN[C@H](C(=O)O)[C@@H](C)O; NH(4-Me-phenyl) = Cc1ccc(N*)cc1; aThr = C[C@H](O)[C@H](N)C(=O)O; NMeA = CN[C@@H](C)C(=O)O; CO = O=C([*:1])[*:2]

The experiment concerns the target T1, Sa-ClpP (Staphylococcus aureus, UniProt Q2G036).
T1 construct: made in house; host or cells: E. coli BL21(DE3)
T1 sequence (Q2G036 1-195): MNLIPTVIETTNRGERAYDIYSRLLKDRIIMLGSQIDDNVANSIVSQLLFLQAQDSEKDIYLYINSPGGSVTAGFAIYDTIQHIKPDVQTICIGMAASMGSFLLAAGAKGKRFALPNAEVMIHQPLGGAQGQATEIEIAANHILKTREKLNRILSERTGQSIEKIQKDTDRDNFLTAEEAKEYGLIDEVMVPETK
As to the kind of experiment: ADEP displacement fluorescence polarization assay (FP probe ADEP 2591). It is filed as binding. As for the experimental part:
A fluorescence polarization (FP) assay was used to determine the activity of the disclosed compounds in displacing an ADEP analogue from ClpP. Briefly, the assay was performed in black 384 well, flat bottom, low volume plates (Greiner Bio-One, Monroe, N.C., catalog #784076). 20 μL of a pre-equilibrated (1 hr, room temperature) master mix (15 μM Sa-ClpP, 2% DMSO (v/v) and 50 nM FP probe in Tris*HCl, pH 8.0)) was pipetted into each well using a Well-Mate (Thermo Scientific, Waltham, Mass.). Sa-ClpP was prepared as described above for the ClpP activation assay. The FP probe was ADEP 2591 (structure shown above). The ADEP 2591 comprises a TAMRA fluorophore linked to a core based on modified ADEP 2378 via a short alkyl linker. Using pin transfer, approximately 0.4 μL (2% v/v DMSO) of each compound or control was added per well. After addition of compounds and controls, plates were allowed to incubate for an additional 120 minutes at room temperature. All assays were performed in triplicate. Polarization was monitored using an EnVision Multilabel reader (Perkin-Elmer, Waltham, Mass.) by exciting the FP probe at 530±25 nm, and monitoring fluorescence intensity of both parallel and perpendicular polarized light at 579±25 nm. Readout was in millipolarization units (mP).
Data collected was normalized to values obtained from positive (200 μM ADEP 2378) or negative (DMSO) controls. Curves were fit with non-linear regression using the equation “log [inhibitor] vs. Response-variable slope (four parameters)-symmetrical” in the program Prism 6 (GraphPad Software, La Jolla, Calif. USA, www.graphpad.com). The structures for ADEP 2378 and ADEP 2591 are shown above. ADEP 2378 is (E)-N—((S)-1-(((2R,6S,8aS,14aS,20S,23aS)-2,6-dimethyl-5,8,14,19,23-pentaoxooctadecahydro-1H,5H,14H,19H-pyrido[2,1-i]dipyrrolo[2,1-c:2′,1′-1][1]oxa[4,7,10,13]tetraazacyclohexadecin-20-yl)amino)-1-oxo-3-phenylpropan-2-yl)pent-2-enamide. ADEP 2591 is 5-(3-(3-((6S,9S,11aS,17S,20aS)-6,10-dimethyl-5,8,11,16,20-pentaoxo-17-((S)-2-((E)-pent-2-enamido)-3-phenylpropanamido)hexadecahydro-1H,5H,16H-dipyrrolo[2,1-c:2′,1′-1][1]oxa[4,7,10,13]tetraazacyclohexadecin-9-yl)propyl)thioureido)-2-(6-(dimethylamino)-3-(dimethyliminio)-3H-xanthen-9-yl)benzoate.
By IC50 is commonly meant the concentration that gives 50% inhibition. Compound `Cc1ccc(NC(=O)N[C@@H](Cc2cc(F)cc(F)c2)C(=O)N[C@@H]2C(=O)N3C[C@H](O)CC3C(=O)N(C)[C@@H](C)C(=O)N[C@@H](C)C(=O)N3C[C@H](C)CC3C(=O)O[C@H]2C)cc1` (stereo partly drawn) [Compound 31, (S)-3-(3,5-difluorophenyl)-N-((2S,6S,9S,11aS,13R,17S,18S,20aS)-13-hydroxy-2,6,9,10,18-pentamethyl-5,8,11,16,20-pentaoxohexadecahydro-1H,5H,16H-dipyrrolo[2,1-c:2′,1′-l][1]oxa[4,7,10,13]tetraazacyclohexadecin-17-yl)-2-(3-(p-tolyl)ureido)propanamide] ({NH(4-Me-phenyl)-CO}-[Phe(3,5-F2)][aThr][ξPro(4R-OH)][NMeA]A[ξPro(4R-Me)]; ester 2-C) came in with an IC50 of 5.8 ± 0.3 µM.
Consider `Cc1ccc(NC(=O)N[C@@H](Cc2cc(F)cc(F)c2)C(=O)N[C@@H]2C(=O)N3CCC[C@H]3C(=O)N(C)[C@@H]([C@@H](C)O)C(=O)N[C@@H](C)C(=O)N3C[C@@H](C)C[C@H]3C(=O)O[C@H]2C)cc1` [Compound 35, (S)-3-(3,5-difluorophenyl)-N-((2S,6S,9S,11aS,17S,18S,20aS)-9-((R)-1-hydroxyethyl)-2,6,10,18-tetramethyl-5,8,11,16,20-pentaoxohexadecahydro-1H,5H,16H-dipyrrolo[2,1-c:2′,1′-l][1]oxa[4,7,10,13]tetraazacyclohexadecin-17-yl)-2-(3-(p-tolyl)ureido)propanamide] ({NH(4-Me-phenyl)-CO}-[Phe(3,5-F2)][aThr]P[NMeT]A[Pro(4S-Me)]; ester 2-C), for which the IC50 amounted to 6.6 ± 0.4 µM.
The result for `C[C@H]1C[C@H]2C(=O)O[C@@H](C)[C@H](NC(=O)[C@H](Cc3cc(F)cc(F)c3)NC(=O)Nc3ccc(OC(F)(F)F)cc3)C(=O)N3CCC[C@H]3C(=O)N(C)[C@@H]([C@@H](C)O)C(=O)N[C@@H](C)C(=O)N2C1` [Compound 36, (S)-3-(3,5-difluorophenyl)-N-((2S,6S,9S,11aS,17S,18S,20aS)-9-((R)-1-hydroxyethyl)-2,6,10,18-tetramethyl-5,8,11,16,20-pentaoxohexadecahydro-1H,5H,16H-dipyrrolo[2,1-c:2′,1′-l][1]oxa[4,7,10,13]tetraazacyclohexadecin-17-yl)-2-(3-(4-(trifluoromethoxy)phenyl)ureido)propanamide] ({NH(4-OCF3-phenyl)-CO}-[Phe(3,5-F2)][aThr]P[NMeT]A[Pro(4S-Me)]; ester 2-C) reads 6.4 ± 0.5 µM; that for `CCc1ccc(NC(=O)N[C@@H](Cc2cc(F)cc(F)c2)C(=O)N[C@@H]2C(=O)N3CCC[C@H]3C(=O)N(C)[C@@H]([C@@H](C)O)C(=O)N[C@@H](C)C(=O)N3C[C@@H](C)C[C@H]3C(=O)O[C@H]2C)cc1` [Compound 37, (S)-3-(3,5-difluorophenyl)-2-(3-(4-ethylphenyl)ureido)-N-((2S,6S,9S,11aS,17S,18S,20aS)-9-((R)-1-hydroxyethyl)-2,6,10,18-tetramethyl-5,8,11,16,20-pentaoxohexadecahydro-1H,5H,16H-dipyrrolo[2,1-c:2′,1′-l][1]oxa[4,7,10,13]tetraazacyclohexadecin-17-yl)propanamide] ({NH(4-Et-phenyl)-CO}-[Phe(3,5-F2)][aThr]P[NMeT]A[Pro(4S-Me)]; ester 2-C), 7 ± 0.4 µM.
`Cc1ccc(NC(=O)N[C@@H](Cc2cc(F)cc(F)c2)C(=O)N[C@@H]2C(=O)N3CCC[C@H]3C(=O)N(C)[C@@H]([C@@H](C)O)C(=O)N[C@@H](C)C(=O)N3C[C@H](C)C[C@H]3C(=O)O[C@H]2C)cc1` [Compound 38, (S)-3-(3,5-difluorophenyl)-N-((2R,6S,9S,11aS,17S,18S,20aS)-9-((R)-1-hydroxyethyl)-2,6,10,18-tetramethyl-5,8,11,16,20-pentaoxohexadecahydro-1H,5H,16H-dipyrrolo[2,1-c:2′,1′-l][1]oxa[4,7,10,13]tetraazacyclohexadecin-17-yl)-2-(3-(p-tolyl)ureido)propanamide] ({NH(4-Me-phenyl)-CO}-[Phe(3,5-F2)][aThr]P[NMeT]A[Pro(4R-Me)]; ester 2-C) had an IC50 of 6.52 ± 0.3 µM.
As for `C[C@@H]1C[C@H]2C(=O)O[C@@H](C)[C@H](NC(=O)[C@H](Cc3cc(F)cc(F)c3)NC(=O)Nc3ccc(OC(F)(F)F)cc3)C(=O)N3CCC[C@H]3C(=O)N(C)[C@@H]([C@@H](C)O)C(=O)N[C@@H](C)C(=O)N2C1` [Compound 41, (S)-3-(3,5-difluorophenyl)-N-((2R,6S,9S,11aS,17S,18S,20aS)-9-((R)-1-hydroxyethyl)-2,6,10,18-tetramethyl-5,8,11,16,20-pentaoxohexadecahydro-1H,5H,16H-dipyrrolo[2,1-c:2′,1′-l][1]oxa[4,7,10,13]tetraazacyclohexadecin-17-yl)-2-(3-(4-(trifluoromethoxy)phenyl)ureido)propanamide] ({NH(4-OCF3-phenyl)-CO}-[Phe(3,5-F2)][aThr]P[NMeT]A[Pro(4R-Me)]; ester 2-C), the figure is 7.53 ± 0.2 µM; as for `CCc1ccc(NC(=O)N[C@@H](Cc2cc(F)cc(F)c2)C(=O)N[C@@H]2C(=O)N3CCC[C@H]3C(=O)N(C)[C@@H]([C@@H](C)O)C(=O)N[C@@H](C)C(=O)N3C[C@H](C)C[C@H]3C(=O)O[C@H]2C)cc1` [Compound 42, (S)-3-(3,5-difluorophenyl)-2-(3-(4-ethylphenyl)ureido)-N-((2R,6S,9S,11aS,17S,18S,20aS)-9-((R)-1-hydroxyethyl)-2,6,10,18-tetramethyl-5,8,11,16,20-pentaoxohexadecahydro-1H,5H,16H-dipyrrolo[2,1-c:2′,1′-l][1]oxa[4,7,10,13]tetraazacyclohexadecin-17-yl)propanamide] ({NH(4-Et-phenyl)-CO}-[Phe(3,5-F2)][aThr]P[NMeT]A[Pro(4R-Me)]; ester 2-C), 7.12 ± 0.2 µM.
The result for `Cc1ccc(NC(=O)N[C@@H](Cc2cc(F)cc(F)c2)C(=O)N[C@@H]2C(=O)N3CCC[C@H]3C(=O)N(C)[C@@H]([C@@H](C)OP(=O)(O)O)C(=O)N[C@@H](C)C(=O)N3C[C@@H](C)C[C@H]3C(=O)O[C@H]2C)cc1` [Compound 188, (R)-1-((2S,6S,9S,11aS,17S,18S,20aS)-17-((S)-3-(3,5-difluorophenyl)-2-(3-(p-tolyl)ureido)propanamido)-2,6,10,18-tetramethyl-5,8,11,16,20-pentaoxohexadecahydro-1H,5H,16H-dipyrrolo[2,1-c:2′,1′-l][1]oxa[4,7,10,13]tetraazacyclohexadecin-9-yl)ethyl dihydrogen phosphate] ({NH(4-Me-phenyl)-CO}-[Phe(3,5-F2)][aThr]P[NMepT]A[Pro(4S-Me)]; ester 2-C) reads 13.7 ± 0.6 µM.
For the compound `C[C@@H]1C[C@H]2C(=O)OC[C@H](NC(=O)[C@H](Cc3ccccc3)NC(=O)Nc3ccc4c(c3)OCO4)C(=O)N3CCC[C@H]3C(=O)N3CCCC[C@H]3C(=O)N[C@@H](C)C(=O)N2C1` [Compound 194, (S)-2-(3-(benzo[d][1,3]dioxol-5-yl)ureido)-N-((2R,6S,8aS,14aS,20S,23aS)-2,6-dimethyl-5,8,14,19,23-pentaoxooctadecahydro-1H,5H,14H,19H-pyrido[2,1-i]dipyrrolo[2,1-c:2′,1′-l][1]oxa[4,7,10,13]tetraazacyclohexadecin-20-yl)-3-phenylpropanamide], the IC50 worked out at 8 ± 0.6 µM. Compared with the last compound, the IC50 is about 1.7-fold lower.
As for `C[C@@H]1C[C@H]2C(=O)OC[C@H](NC(=O)[C@H](Cc3cc(F)cc(F)c3)NC(=O)Nc3ccc4c(c3)OCO4)C(=O)N3CCC[C@H]3C(=O)N3CCCC[C@H]3C(=O)N[C@@H](C)C(=O)N2C1` [Compound 195, (S)-2-(3-(benzo[d][1,3]dioxol-5-yl)ureido)-3-(3,5-difluorophenyl)-N-((2R,6S,8aS,14aS,20S,23aS)-2,6-dimethyl-5,8,14,19,23-pentaoxooctadecahydro-1H,5H,14H,19H-pyrido[2,1-i]dipyrrolo[2,1-c:2′,1′-l][1]oxa[4,7,10,13]tetraazacyclohexadecin-20-yl)propanamide], the IC50 was 5.8 ± 0.2 µM.
